We go through two compounds from US20180296559A1, “TREATMENT OF AIRWAY SMOOTH MUSCLE DYSFUNCTION” (priority 2016, published 2018).

Data set [1] has as its system porcine precision cut lung slices. In words: Airway contraction in precision cut lung slices in response to methacholine. Format: cell-based. To be noted: WT newborn pig lung slices pretreated overnight with 10 μM compound vs DMSO. The text has this:
FIG. 1. NVP-TAE684 decreases airway contraction in porcine precision cut lung slices. Percent airway lumen area contraction in response to methacholine in porcine precision cut lung slices pretreated with control vehicle (DMSO, black circles) or NVP-TAE684 (grey circles), normalized to maximal contractile response (n=6 animals per group). Data are shown as mean values with SEM and are fitted with a four-parameter logistic regression algorithm (solid line).
Precision cut lung slice preparation. Precision cut lung slices were isolated as previously described (11) from wild type newborn pigs. Lung slice culture media consisted of Dulbecco's Modified Eagle Medium (Gibco, Big Cabin, Okla.), 10% fetal bovine serum (Gibco, Big Cabin, Okla.), 1% penicillin-streptomycin (5,000 U/mL, Gibco, Big Cabin, Okla.), and 0.1% gentamicin (50 mg/mL, Gibco, Big Cabin, Okla.).
For the porcine lung slice studies, the tracheal bronchus from collected tracheal lobes was cannulated with a 24 G IV catheter (BD Medical) and a tight seal was created using suture. The tracheal lobe was instilled with approximately 10 mL of 2% UltraPure Low Melting Point agarose (Invitrogen, Carlsbad, Calif.) solution and cooled at −20° C. for 30 min. […] For all PCLS experiments, maximal airway contraction was analyzed for each dose by lumen area measurements performed in ImageJ (NIH). […]

In data set [2] the test system is tracheal airway smooth muscle strips. The data set can be described thus: Airway smooth muscle strip isometric force generation following acetylcholine. Type of data set: cell-based, pig. From the text:
FIG. 2. NVP-TAE684 decreases airway smooth muscle force generation. Wild-type airway smooth muscle strip isometric force generation following acetylecholine treatment in muscle strips pretreated with control vehicle (DMSO, black circles) or NVP-TAE684 (grey circles) (n=5 animals per group). Data are shown as mean values with SEM and are fitted with a four-parameter logistic regression algorithm (solid line).
Airway smooth muscle tissue and cells. Trachea from newborn WT […] or CFTR^−/− pigs was excised and placed in modified Krebs Solution containing (mM): 120.8 NaCl, 5.9 KCl, 0.2 CaCl2, 1.2 MgCl2, 1.2 NaH2PO4, 2 NaHCO3, 11 d-glucose, and 10 HEPES, pH 7.4. The trachealis muscle was dissected by removing the cartilage and epithelial layers. For force measurements, strips of trachealis smooth muscle were hung in a tissue perfusion system (Radnoti LLC, Monrovia, Calif.). For cell isolation, the remaining medial layers were minced and digested using a papain dissociation system (Worthington, Lakewood, N.J.) based upon previous studies (10). The minced smooth muscle was suspended in Earle's balanced salt solution (EBSS) containing papain (10 U/ml) and DNase (1000 U/ml) and incubated at 37° C. for 1 hr. Collagenase (0.5mg/m1) was added and after 1 hr the mixture triturated. Primary cells were grown to confluence in a 1:1 mixture of DMEM and Ham's F12 on fibrinogen-coated 6-well plates. All solutions contained 100 U/ml penicillin and 0.1 mg/ml streptomycin. Primary culture cells were allowed to grow for 8-10 d until confluent. […]
Measurement of airway smooth muscle force generation. […] The contractile activity was recorded with Grass isometric force transducers and amplifiers connected to a Biopac data acquisition system (Biopac Systems, Goleta, Calif.). […] The smooth muscle force from NVP-TAE684 or DMSO pretreated strips was determined by obtaining concentration-response curves to acetylcholine (10^−9 to 10^−2 M) in the muscle bath. […]

Data set [3] concerns wild-type mice. In words: In vivo airway resistance following methacholine challenge. To be noted: 100 μl of 5 mM, intraperitoneal, daily for 3 days, vs vehicle. The procedure: FIG. 3. In vivo treatment with NVP-TAE684 decreases cholinergic induced airway hyper-responsiveness. Mice were pretreated with control vehicle (DMSO, black circles) or NVP-TAE684 (grey circles) for 3 days (n=10 animals per group). Airway resistance following methacholine treatment was then determined. Data are shown as mean values with SEM and are fitted with a four-parameter logistic regression algorithm (solid line).
Measurement of in vivo airway resistance. WT mice were pretreated with either PYK2 inhibitor NVP-TAE684 (100 μl of 5 mM, 1% DMSO) or vehicle (1% DMSO) was given via intra-peritoneal injections daily for 3 days prior and including the day of pulmonary measurements. Mice were anesthetized with ketamine (50 or 100 mg/kg) and xylazine (0-10 mg/kg). Following tracheotomy, an 18-gauge cannula was inserted and securely tied with 4.0 braided silk. The animals were then mechanically ventilated with a computer-controlled small-animal ventilator (FlexiVent, SCIREQ, Montreal, Quebec) using a tidal volume of 8 mL/kg at a rate of 180 breaths/min and PEEP of 3.5 cm H2O. Pulmonary resistance was measured by the computer controlled ventilator by interrupting ventilation and imposing broadband low-frequency oscillatory waveforms and then resuming ventilation. […]

For data set [4], the system named is wild-type mice. In words: Morphologic analysis of histological sections of treated mice. Format: in vivo.
The next data set concerns the target Recombinant human PYK2 (Homo sapiens, UniProt Q14289). In words: ADP-based phosphatase-coupled kinase assay (malachite green). Type of data set: biochemical. The conditions noted are these: 10, 25, or 100 μM compound vs DMSO; PYK2 0.5 and 2 μg/ml. The procedure:
FIG. 4. Recombinant human PYK2 was treated with either DMSO or 10, 25, or 100 μM ceritinib. PYK2 activity was measured by using an ADP-based phosphatase-coupled kinase assay. ADP from PYK2 activity releases an inorganic phosphate via a coupling enzyme and is detected using malachite green reagent. The amount of inorganic phosphate released is proportional to the amount of ADP generated during the kinase reaction. Two concentrations of PYK2 (0.5 and 2 μg/ml) were tested.

[5] abbreviates: pretreated with 10 μM compound vs DMSO.

Recombinant human PYK2, sequence (Q14289 whole entry): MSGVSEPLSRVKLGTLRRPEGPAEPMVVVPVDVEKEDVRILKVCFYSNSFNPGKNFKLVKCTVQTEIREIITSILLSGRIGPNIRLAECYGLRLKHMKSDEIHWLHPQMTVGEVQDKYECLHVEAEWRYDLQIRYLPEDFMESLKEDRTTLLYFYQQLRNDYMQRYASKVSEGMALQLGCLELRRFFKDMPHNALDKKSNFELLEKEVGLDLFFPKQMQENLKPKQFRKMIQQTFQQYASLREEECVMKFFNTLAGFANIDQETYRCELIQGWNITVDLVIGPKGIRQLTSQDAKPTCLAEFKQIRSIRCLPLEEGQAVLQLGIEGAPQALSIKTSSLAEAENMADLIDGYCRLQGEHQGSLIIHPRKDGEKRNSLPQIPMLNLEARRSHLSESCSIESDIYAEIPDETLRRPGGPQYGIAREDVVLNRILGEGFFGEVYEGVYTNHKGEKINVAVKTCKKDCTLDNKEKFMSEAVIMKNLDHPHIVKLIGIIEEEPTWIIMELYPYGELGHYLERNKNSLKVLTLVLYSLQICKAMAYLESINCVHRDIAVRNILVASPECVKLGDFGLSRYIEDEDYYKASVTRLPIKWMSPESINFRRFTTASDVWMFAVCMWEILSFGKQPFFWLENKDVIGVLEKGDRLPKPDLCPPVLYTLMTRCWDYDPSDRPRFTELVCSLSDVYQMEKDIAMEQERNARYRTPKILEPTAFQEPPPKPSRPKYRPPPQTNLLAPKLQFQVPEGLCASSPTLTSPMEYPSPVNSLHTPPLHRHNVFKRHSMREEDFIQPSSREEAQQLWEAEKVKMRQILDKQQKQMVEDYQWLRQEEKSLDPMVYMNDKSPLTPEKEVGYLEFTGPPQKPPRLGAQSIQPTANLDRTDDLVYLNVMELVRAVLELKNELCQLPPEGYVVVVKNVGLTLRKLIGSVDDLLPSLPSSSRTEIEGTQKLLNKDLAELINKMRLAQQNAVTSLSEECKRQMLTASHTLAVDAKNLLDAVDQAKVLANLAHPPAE

With `COc1cc(N2CCC(N3CCN(C)CC3)CC2)ccc1Nc1ncc(Cl)c(Nc2ccccc2S(=O)(=O)C(C)C)n1` [NVP-TAE684], the “airway narrowing in response to increasing dosages of methacholine, measured by luminal area” value in data set [1] is listed as “decreased the airway narrowing”. Also, the maximal force production in data set [2] (newborn WT pig tracheal muscle strips pretreated with 10 μM compound, acetylcholine dose response) was determined as 40 mN. In addition, in data set [2] (setting [5]), the “force generation in tracheal smooth muscle strips across all doses of acetylcholine” value was “decreased force generation” and the “median effective concentrations of acetylcholine, compound-pretreated vs DMSO-pretreated strips” value was “no significant differences”. Further, in the data set on wild-type mice [3], the “respiratory response to inhaled methacholine (airway resistance)” value is given as “significantly decreased”. For the same compound, the “drug-induced toxicity in histological sections of heart, kidney, and liver” value in the data set on wild-type mice [4] (mouse, in vivo) was “no evidence of drug-induced toxicity”. For the same compound, the “changes in epithelia, cartilage or airway smooth muscle layers (lung parenchyma, conducting airways, trachea sections)” value in the data set on wild-type mice [4] (treated mice vs vehicle control mice) is “no significant changes”.

For `Cc1cc(Nc2ncc(Cl)c(Nc3ccccc3S(=O)(=O)C(C)C)n2)c(OC(C)C)cc1C1CCNCC1` [ceritinib], at Recombinant human PYK2, the PYK-2 activity entry is on record as “dose-dependent decrease”.
